Test results as given in patent US20250154547A1, “REAGENTS AND METHODS USED IN DEPROTECTION OF 3'-O-AMINO POLYNUCLEOTIDES” (priority 2023, published 2025).
Like-named read-outs stand apart in the source and are kept apart here.

How the values were obtained:
[1] = system: dTTP-3′-ONH2
Procedure: 1 mM solution of dTTP-3′-ONH2 (100 uL) taken in 50 mM sodium acetate (pH 5.0), 50 mM sodium phosphate (pH 6.0), 50 mM sodium phosphate (pH 7.0) or 50 mM sodium bicarbonate (pH around 8, i.e. 8.25) buffers was agitated with ThermoMixer in sealed Eppendorf tubes with 2 eq of carbonylbisphosphonate as prepared in Example 1, at 25° C. After 5 min/20 min/60 min of incubation the corresponding reaction mixture had been quenched with 5-fold excess of hydroxylamine hydrochloride in 100 μL of deionized water followed by excess of aqueous 5% acetone. Thereby, non-reacted residual dTTP-ONH2 was converted to an inert acetoxime form—dTTP-OX. The quenched reaction mixtures were analyzed with reversed-phase HPLC as shown on FIG. 3 with the following conditions: C18 Xterra 3.5 μm, 4.6×50 mm column (Waters); Buffer A: 50 mM TEAB (pH 8.5), Buffer B: 100% ACN. Gradient elution method: flow rate: 1.5 mL/min, 0-2 min—0% ACN B, 5.3 min—10% ACN, 8 min—30% ACN, 8-10 min—100% ACN.
After 5 min/20 min/60 min of incubation the corresponding reaction mixture had been quenched with 100 μL of 5% acetone in 100 mM sodium bicarbonate buffer (pH around 8, i.e. 8.25). Thereby, non-reacted residual dTTP-ONH2 was converted to an inert acetoxime form—dTTP-OX. The quenched reaction mixtures were analyzed with reversed-phase HPLC as shown on FIG. 4 with the following conditions: C18 Xterra 3.5 μm, 4.6×50 mm column (Waters); Buffer A: 50 mM TEAB (pH 8.5), Buffer B: 100% ACN. Gradient elution method: flow rate: 1.5 mL/min, 0-2 min—0% ACN B, 5.3 min—10% ACN, 8 min—30% ACN, 8-10 min—100% ACN.

[2] = system: dATP-3′-ONH2, dTTP-3′-ONH2, dCTP-3′-ONH2 or dGTP-3′-ONH2; experiment: Deprotection study with various 3′-O-NH2 nucleotides (96-well screening, RP-HPLC); details: for pH of highest cleavage rate (optimal pH): 2 mM agent, 1 mM dNTP-3′-ONH2, pH 5.0-8.25
Procedure: The screening tests were performed in a 96-well plate with a reaction volume of 100 uL. Nucleoside triphosphate (dATP-3′-ONH2, dTTP-3′-ONH2, dCTP-3′-ONH2 or dGTP-3′-ONH2) were taken at 1 mM final concentration in one of four 50 mM buffers (A: sodium acetate pH 5.0, B: sodium phosphate pH 6.0, C: sodium phosphate 7.0, D: sodium bicarbonate pH around 8, i.e. 8.25). Tetrasodium carbonylbisphosphonate was added to the dNTPs solutions at 2 mM final concentration and incubated during 5, 20 or 60 mins prior to quenching with 2× concentration of hydroxylamine hydrochloride. The 96-well plate were agitated with Thermomixer at 25° C. or 40° C. The catalytic effect of magnesium on cleavage rate was also investigated. For this purpose, the same experiments were performed in the presence of 20 mM magnesium sulfate. Prior to HPLC analysis reaction mixtures were additionally quenched with acetone to convert 3′-ONH2 to acetoxime form. The samples were analyzed by RP-HPLC with gradual gradient of acetonitrile in 50 mM TEAB buffer (pH 8.5). The cleavage rate was determined based on the ratio between dNTP-3′-OH and dNTP-3′-acetoxime.
Xterra RP C18 Column: 4.6*50 mm, (3.5 um silica), Buffer A: 50 mM TEAA (pH 7.0), Buffer B: 100% ACN. Method: 0-2 min—0% ACN B, 6 min—10% ACN, 8 min—30% ACN, 8-10 min—100% ACN. Flowrate: 1.5 mL/min, no loop insert.

CC(=O)P(=O)(O)O [acetylphosphonic acid, Acetylphosphonic acid]
conversion of 3′-ONH2 to 3′-OH ([1]; 2 eq, 60 minutes, pH 6 or 7, 25° C.): about 60%

O=C(P(=O)(O)O)P(=O)(O)O [carbonylbisphosphonate, Tetrasodium Carbonylbisphosphonate]
conversion of 3′-ONH2 to 3′-OH ([1]; 2 eq deprotecting agent, pH 5, 5 min, 25° C., 1 mM dTTP-3′-ONH2): 100%
pH of highest cleavage rate (optimal pH) [2]: around 5
pH of highest cleavage rate (optimal pH) ([2]; listed as carbonyl bisphosphonate): 5.0
Mg (II) impact on cleavage yield ([2]; 20 mM magnesium sulfate): Magnesium markedly facilitates the cleavage yield at higher pH

O=NO [sodium nitrite, reference compound]
conversion to dTTP-OH ([1]; pH 5): about 80%
reaction speed with oxyamines compared with carbonylbisphosphonate ([1]; pH 5): several times slower
